System: HeLa 21-4 cells
Experiment: Combination of Procedures 1 and 2 for detection of DNA breaks in isolated chromatin of HeLa cells
Type: cell-based
Details: H2O2 4 mM, 30 minutes; control 6.0±0.1
Description: In this Example, HeLa 21-4 cells (obtained from P.R. Cook, University of Oxford) were seeded on 6-well plates and cultured for 48 hours in DMEM supplemented with 10% FBS until the culture reached 100% confluency (number of cells: 1.2×10^6 per 1 well). Next, cells were treated with the DNA damaging agent H2O2 which was added directly to the growth medium (final concentration: 4 mM). The cells were incubated at 37° C. for 30 minutes in the standard cell culture incubator with CO2 level control. The control, untreated cells and the damaged cells (H2O2) were then harvested using 0.5 ml trypsin and transferred to 1.5 ml Eppendorf tubes. Afterwards, trypsin was inactivated by adding 0.5 ml DMEM supplemented with 10% FBS. Subsequently, cells were spun down in the table top centrifuge (Eppendorf centrifuge, 5417 C, rotor: F45-30-11) (1700 rpm, 5 minutes, room temperature). The cell pellet was resuspended in 10 mM Tris (pH 8.8), a small aliquot of the cells in suspension (50 μl) was transferred to a new 1.5 ml Eppendorf tube and spun down in the table top centrifuge (1 minute, 14000 rpm, room temperature). The supernatant was discarded and the washing step in the same volume (50 μl) of 10 mM Tris (pH 8.8) was repeated (centrifugation in the table top centrifuge (1 minute, 14000 rpm, room temperature)). […]

Compound: OO [H2O2]
- fluorescence intensity (mean grey value) of immobilized modified DNA: 8.9±0.1 a.u.

From patent US20200255884A1, “METHOD OF DETECTION OF DNA END(S) AND ITS USE” (INTODNA SP. Z O.O., priority 2017, published 2020)
